Drawing on patent US8501940B2, “Tetrahydrocinnoline derivatives” (Hoffmann-La Roche Inc., priority 2008, dated 2013), this text covers IC50 and insulin sensitivity for eight compounds.

The target of one test is T1, human 11beta-HSD1 (Homo sapiens, UniProt P28845).
T1 construct: made in house; host or cells: HEK293 cells (ATCC CRL-1573), transient transfection with a pcDNA3 construct; microsomal fraction used
The test can be described thus: Microsome assay (cortisone to cortisol conversion, ELISA detection). Type of test: biochemical. The following applies: microsomes from HEK293 cells transiently expressing human 11beta-HSD1; Cortisone 50-200 nM, NADPH 1 mM; 60 min at 37° C.; cortisol by ELISA; read-out: h 11-beta-HSD 1 IC50. The procedure:
The cDNA encoding the human 11beta-HSD1 protein was cloned into the expression vector pcDNA3 (Stratagene). This construct (for details see Alex Odermatt et al.; J Biol Chem., 1999, Vol. 274, Issue 40, 28762-28770) was used to transiently express the protein in HEK293 cells (ATCC number: CRL-1573, described in Graham, F. L., Smiley, J., Russell, W. C., Nairn, R.; (1977)) using lipofectamine. 48 h after transfection cells were washed twice with ice-cold PBS (Phosphate buffered Saline). To 1 volume of cell suspension in PBS 2 volumes of ice-cold lysis buffer (50 mM Tris; pH7.5; 1 mM EDTA; 100 mM NaCl) were added. The cells were lysed by Potter-homogenization (20 strokes). The resulting homogenate was sonicated with a tip sonicator (10% output; 2×30 sec.) and cleared by a low speed centrifugation (10 min×9000 g; 4° C.). The microsomal fraction was collected by a high speed centrifugation (60 min×110,000 g). The resulting pellet was resuspended in storage buffer (20 mM Tris pH 7.5; 1 mM EDTA; 10% Glycerol) and the centrifugation was repeated. The resulting pellet containing the microsomal fraction was again taken up into storage buffer and aliquots were kept frozen in liquid Nitrogen until use.
Microsomes isolated from HEK293 cells transiently expressing human 11beta-HSD1 (for details see above) were incubated in assay buffer (100 mM NaCl; 1 mM EDTA; 1 mM EGTA; 1 mM MgCl; 250 mM Sucrose; 20 mM Tris pH 7.4; Cortisone 50-200 nM and NADPH 1 mM) together with different concentrations of test substances. After 60 min. of incubation at 37° C. the assay was stopped by heating to 80° C. (5 min.) and by addition of the inhibitor Carbenoxolone (1 uM). The amount of Cortisol produced in this assay was determined using a commercially available, ELISA-based Cortisol-detection kit (Distributed by Assay Design, Inc.). Inhibitors were characterized by there IC50 values, e.g. the concentration at which the production of cortisol was 50% reduced.
(In general: ELISA stands for enzyme-linked immunosorbent assay.)

The next test concerns men. The following applies: treatment with carbenoxolone in men; cited from earlier work.

T1 sequence (P28845 whole entry): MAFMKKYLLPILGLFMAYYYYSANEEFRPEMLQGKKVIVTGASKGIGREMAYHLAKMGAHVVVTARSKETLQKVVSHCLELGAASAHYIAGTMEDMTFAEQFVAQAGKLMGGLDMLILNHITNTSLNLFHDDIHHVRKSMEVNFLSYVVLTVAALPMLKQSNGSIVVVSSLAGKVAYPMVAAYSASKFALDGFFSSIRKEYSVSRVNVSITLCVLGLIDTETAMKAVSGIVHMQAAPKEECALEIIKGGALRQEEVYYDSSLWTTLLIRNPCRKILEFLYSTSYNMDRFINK

Usually IC50 stands for the concentration that inhibits the measured activity by half. Turning to `Fc1ccc(-c2cc3c(nn2)C2CCC3C23CCCC3)c(C(F)(F)F)c1` (stereo not drawn) [Example 27, (5′RS,8′SR)-3′-[4-fluoro-2-(trifluoromethyl)phenyl]-5′,6′,7′,8′-tetrahydrospiro[cyclopentane-1,9′-[1′,2′]diaza[5′,8′]methanocinnoline]], the IC50 at human 11beta-HSD1 was found to be 1 pM.

Turning to `Fc1ccc(-c2cc3c(nn2)C2CCC3C23CCCC3)c(Cl)c1` (stereo not drawn) [Example 28, (5′RS,8′SR)-3′-(2-chloro-4-fluorophenyl)-5′,6′,7′,8′-tetrahydrospiro[cyclopentane-1,9′-[1′,2′]diaza[5′,8′]methanocinnoline]], the half-maximal inhibitory concentration (IC50) at human 11beta-HSD1 turned out to be 1 pM.

Regarding `Cc1ccccc1-c1cc2c(nn1)C1CCC2C12CCCC2` (stereo not drawn) [Example 29, (5′RS,8′SR)-3′-(2-methylphenyl)-5′,6′,7′,8′-tetrahydrospiro[cyclopentane-1,9′-[1′,2′]diaza[5′,8′]methanocinnoline]], the half-inhibitory concentration (IC50) on human 11beta-HSD1 came out at 1 pM.

On to `Cc1c(-c2cc3c(nn2)C2CCC3C23CCCC3)cnn1-c1ccccc1` (stereo not drawn) [Example 30, (5′RS,8′SR)-3′-(5-methyl-1-phenyl-1H-pyrazol-4-yl)-5′,6′,7′,8′-tetrahydrospiro[cyclopentane-1,9′-[1′,2′]diaza[5′,8′]methanocinnoline]], for which, on human 11beta-HSD1, the half-maximal inhibitory concentration (IC50) was 62 pM.

Take `Cc1c(-c2cc3c(nn2)C2CCC3C23CCCC3)cnn1C(C)(C)C` (stereo not drawn) [Example 31, (5′RS,8′SR)-3′-(1-tert-butyl-5-methyl-1H-pyrazol-4-yl)-5′,6′,7′,8′-tetrahydrospiro[cyclopentane-1,9′-[1′,2′]diaza[5′,8′]methanocinnoline]]: the half-inhibitory concentration (IC50) on human 11beta-HSD1 came to 13 pM.

Consider `FC(F)(F)c1ccc(Cl)cc1-c1cc2c(nn1)C1CCC2C12CCCC2` (stereo not drawn) [Example 32, (5′RS,8′SR)-3′-[5-chloro-2-(trifluoromethyl)phenyl]-5′,6′,7′,8′-tetrahydrospiro[cyclopentane-1,9′-[1′,2′]diaza[5′,8′]methanocinnoline]], for which the concentration for half-maximal inhibition (IC50) on human 11beta-HSD1 turned out to be 6 pM.

In the case of `CC1(C)[C@@H](OC(=O)CCC(=O)O)CC[C@]2(C)[C@H]3C(=O)C=C4[C@@H]5C[C@@](C)(C(=O)O)CC[C@]5(C)CC[C@@]4(C)[C@]3(C)CC[C@@H]12` [carbenoxolone], the insulin sensitivity entry with men is listed as “increase in insulin sensitivity”.

On to “(5′RS,8′SR)-3′-(2-methylphenyl)-5′,6′,7′,8′-tetrahydrospiro[cyclopropane-1,9′-[1′,2′]diaza[5′,8′]methanocinnoline] [Example 26]”, for which the IC50 at human 11beta-HSD1 is 5 pM.
